From patent US20230158025A1 (UNIVERSITY OF UTAH RESEARCH FOUNDATION, priority 2020, published 2023) come the findings set out here.

Each structure is given as a SMILES string. Like-named read-outs stand apart in the source and are kept apart here.

Data set [1] concerns the target recombinant human GALK1 (Homo sapiens, UniProt P51570). The data set is described as follows: hGALK1 biochemical activity assay (Kinase-Glo Plus, ATP depletion). In outline: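 Recombinant human or mouse GALK1 (5 nM, with 100 μM galactose, in the added enzyme solution) was run with ATP (35 μM in the substrate solution) in HEPES pH 8.0 buffer. Compounds were tested at 11 1/3-step concentrations from 57.4 μM to 0.97 nM. After 1 h at room temperature, remaining ATP was read by Kinase-Glo Plus luminescence.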
(In general: Kinase-Glo measures the ATP left after a reaction by luminescence.)

Data set [2] has as its target recombinant mouse GALK1 (Mus musculus, UniProt Q9R0N0). Briefly: mGALK1 biochemical activity assay (Kinase-Glo Plus, ATP depletion). The method, boiled down:
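Recombinant GALK1 (5 nM) with 100 μM galactose; GALK1 turnover read as ATP depletion by Kinase-Glo Plus luminescence. Reaction ran 1 h at room temperature before detection reagent was added.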

Data set [3] is described as follows: PAMPA permeability. Background: PAMPA measures passive passage across an artificial lipid membrane.
Data set [4] is described as follows: aqueous kinetic solubility.
Data set [5] is described as follows: rat microsomal stability (RLM). Conditions: microsomal half-life.
[6] abbreviates: recombinant human GALK1, Kinase-Glo Plus ATP depletion, read-out: hGALK.
Where [7] appears, read: recombinant mouse GALK1, Kinase-Glo Plus ATP depletion, read-out: mGALK.
Where [8] appears, read: Tables 2-15, 35 μM ATP, 100 μM galactose, 1 h, bracketed figure after some values (e.g. −1.2) is undefined and not reported, read-out: hGALK IC50.
Where [9] appears, read: Tables 2-15, 35 μM ATP, 100 μM galactose, 1 h, bracketed figure after some values is undefined and not reported, read-out: mGALK IC50.

recombinant human GALK1, sequence (P51570 whole entry): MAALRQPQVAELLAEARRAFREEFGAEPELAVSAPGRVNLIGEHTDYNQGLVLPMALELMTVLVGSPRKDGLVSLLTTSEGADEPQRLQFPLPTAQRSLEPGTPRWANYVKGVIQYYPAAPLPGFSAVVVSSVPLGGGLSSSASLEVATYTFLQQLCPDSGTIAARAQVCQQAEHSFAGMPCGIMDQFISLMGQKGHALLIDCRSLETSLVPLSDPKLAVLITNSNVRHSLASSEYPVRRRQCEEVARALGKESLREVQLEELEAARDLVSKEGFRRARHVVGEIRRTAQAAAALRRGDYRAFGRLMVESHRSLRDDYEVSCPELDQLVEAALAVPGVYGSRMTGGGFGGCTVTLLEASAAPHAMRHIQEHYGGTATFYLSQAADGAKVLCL
recombinant mouse GALK1, sequence (Q9R0N0 whole entry): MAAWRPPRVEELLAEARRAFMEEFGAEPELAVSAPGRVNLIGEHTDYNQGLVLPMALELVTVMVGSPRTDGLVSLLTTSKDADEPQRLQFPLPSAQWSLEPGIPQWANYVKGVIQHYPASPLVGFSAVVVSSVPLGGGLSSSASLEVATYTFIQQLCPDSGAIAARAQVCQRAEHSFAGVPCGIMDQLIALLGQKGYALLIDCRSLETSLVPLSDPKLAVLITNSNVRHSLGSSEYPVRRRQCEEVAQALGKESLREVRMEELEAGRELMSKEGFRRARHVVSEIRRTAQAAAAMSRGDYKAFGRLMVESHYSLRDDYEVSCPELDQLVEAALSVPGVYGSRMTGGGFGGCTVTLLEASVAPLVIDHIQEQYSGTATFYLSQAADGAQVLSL

As for `CC1=C(C(=O)Nc2cc(C(=O)O)ccn2)C(c2ccc(-n3cccn3)cc2Cl)N=C(Nc2nc3ccc(F)cc3o2)N1` (stereo not shown) [Compound 60, 2-(4-(2-chloro-4-(1H-pyrazol-1-yl)phenyl)-2-((6-fluorobenzo[d]oxazol-2-yl)amino)-6-methyl-1,4-dihydropyrimidine-5-carboxamido)isonicotinic acid], the figures for the IC50 in data set [1] (setting [6]) and in data set [2] (setting [7]) were 0.77 µM and 3.43 µM, respectively. The “Perm. (1 × 10^−6 cm/sec)” value in data set [3] is <1 1 × 10^−6 cm/sec. The “Sol.” value in data set [4] was more than 87 µg/mL. Besides, in data set [5], the “Metab. Stabil. (m)” value is listed as more than 30 m.

In the case of `CC1=C(C(=O)Nc2cc(C(=O)O)ccn2)C(c2ccc(C(F)(F)F)cc2Cl)N=C(Nc2nc3ccc(F)cc3o2)N1` (stereo not shown) [Compound 61, 2-(4-(2-chloro-4-(trifluoromethyl)phenyl)-2-((6-fluorobenzo[d]oxazol-2-yl)amino)-6-methyl-1,4-dihydropyrimidine-5-carboxamido)isonicotinic acid], the IC50 came out at 1.53 µM in data set [1] (setting [8]), 1.53 µM in data set [1] (setting [6]), 10.9 µM in data set [2] (setting [9]) and 10.9 µM in data set [2] (setting [7]). Moreover, in data set [3], the “Perm. (1 × 10^−6 cm/sec)” value is <1 1 × 10^−6 cm/sec. Moreover, the “Sol.” value in data set [4] was 19.4 µg/mL. In data set [5], the “Metab. Stabil. (m)” value was more than 30 m.

With `CC1=C(C(=O)Nc2cc(C(=O)O)ccn2)C(c2ccc(Br)cc2Cl)N=C(Nc2nc3ccc(F)cc3o2)N1` (stereo not shown) [Compound 62, 2-(4-(4-bromo-2-chlorophenyl)-2-((6-fluorobenzo[d]oxazol-2-yl)amino)-6-methyl-1,4-dihydropyrimidine-5-carboxamido)isonicotinic acid], the IC50 in data set [1] (setting [8]) came to 1.09 µM; in data set [1] (setting [6]), 1.09 µM; in data set [2] (setting [9]) it was 3.85 µM; in data set [2] (setting [7]), 3.85 µM. The “Perm. (1 × 10^−6 cm/sec)” value in data set [3] is on record as <1.7 1 × 10^−6 cm/sec. The “Sol.” value in data set [4] was 2.4 µg/mL. In addition, the “Metab. Stabil. (m)” value in data set [5] is more than 30 m.

In the case of `CC1=C(C(=O)Nc2cc(C(=O)O)ccn2)C(c2cccc([N+](=O)[O-])c2Cl)N=C(Nc2nc3ccc(F)cc3o2)N1` (stereo not shown) [Compound 63, 2-(4-(2-chloro-3-nitrophenyl)-2-((6-fluorobenzo[d]oxazol-2-yl)amino)-6-methyl-1,4-dihydropyrimidine-5-carboxamido)isonicotinic acid], the IC50 in data set [1] (setting [6]) was determined as 19.3 µM; in data set [2] (setting [7]), 34.3 µM. In addition, the “Perm. (1 × 10^−6 cm/sec)” value in data set [3] is on record as <1 1 × 10^−6 cm/sec. Further, the “Sol.” value in data set [4] is more than 84 µg/mL. Further, the “Metab. Stabil. (m)” value in data set [5] is on record as more than 30 m.

For the compound `CC1=C(C(=O)Nc2cc(C(=O)O)ccn2)C(c2cccc(N)c2Cl)N=C(Nc2nc3ccc(F)cc3o2)N1` (stereo not shown) [Compound 64, 2-(4-(3-amino-2-chlorophenyl)-2-((6-fluorobenzo[d]oxazol-2-yl)amino)-6-methyl-1,4-dihydropyrimidine-5-carboxamido)isonicotinic acid], the IC50 in data set [1] (setting [8]) stood at 3.06 µM; in data set [1] (setting [6]), 3.06 µM; in data set [2] (setting [9]) it was 17.2 µM; in data set [2] (setting [7]), 17.2 µM. For the same compound, the “Perm. (1 × 10^−6 cm/sec)” value in data set [3] is reported as <1 1 × 10^−6 cm/sec. The “Sol.” value in data set [4] is more than 79 µg/mL. For the same compound, the “Metab. Stabil. (m)” value in data set [5] is reported as more than 30 m.

For `CC1=C(C(=O)Nc2cc(C(=O)O)ccn2)C(c2ccc(C#N)cc2Cl)N=C(Nc2nc3ccc(F)cc3o2)N1` (stereo not shown) [Compound 66, 2-(4-(2-chloro-4-cyanophenyl)-2-((6-fluorobenzo[d]oxazol-2-yl)amino)-6-methyl-1,4-dihydropyrimidine-5-carboxamido)isonicotinic acid], the IC50 is 0.61 µM in data set [1] (setting [8]), 0.61 µM in data set [1] (setting [6]), 3.85 µM in data set [2] (setting [9]) and 3.85 µM in data set [2] (setting [7]). In addition, the “Perm. (1 × 10^−6 cm/sec)” value in data set [3] was <1 1 × 10^−6 cm/sec. The “Sol.” value in data set [4] was more than 81 µg/mL. Besides, the “Metab. Stabil. (m)” value in data set [5] was more than 30 m.

`CCOc1ccc(C2N=C(Nc3nc4ccc(F)cc4o3)NC(C)=C2C(=O)Nc2cc(C(=O)O)ccn2)c(Cl)c1` (stereo not shown) [Compound 67, 2-(4-(2-chloro-4-ethoxyphenyl)-2-((6-fluorobenzo[d]oxazol-2-yl)amino)-6-methyl-1,4-dihydropyrimidine-5-carboxamido)isonicotinic acid]: the IC50 in data set [1] (setting [8]) stood at 0.69 µM; in data set [1] (setting [6]), 0.69 µM; in data set [2] (setting [9]), 3.85 µM; in data set [2] (setting [7]) it was 3.85 µM. The “Perm. (1 × 10^−6 cm/sec)” value in data set [3] is given as <1 1 × 10^−6 cm/sec. Moreover, the “Sol.” value in data set [4] stood at 11.3 µg/mL. Besides, the “Metab. Stabil. (m)” value in data set [5] is more than 30 m.

As for `CC1=C(C(=O)Nc2cc(C(=O)O)ccn2)C(c2ccc(-c3ccc(C(F)(F)F)cc3)cc2Cl)N=C(Nc2nc3ccc(F)cc3o2)N1` (stereo not shown) [Compound 68, 2-(4-(3-chloro-4′-(trifluoromethyl)-[1,1′-biphenyl]-4-yl)-2-((6-fluorobenzo[d]oxazol-2-yl)amino)-6-methyl-1,4-dihydropyrimidine-5-carboxamido)isonicotinic acid], the IC50 was 7.69 µM in data set [1] (setting [8]), 7.69 µM in data set [1] (setting [6]), 21.7 µM in data set [2] (setting [9]) and 21.7 µM in data set [2] (setting [7]). For the same compound, the “Perm. (1 × 10^−6 cm/sec)” value in data set [3] was 6.6 1 × 10^−6 cm/sec. In data set [4], the “Sol.” value was determined as 8.1 µg/mL. Further, the “Metab. Stabil. (m)” value in data set [5] is more than 30 m.

For `CC1=C(C(=O)Nc2cc(C(=O)O)ccn2)C(c2ccc(-c3ccc(C)nc3)cc2Cl)N=C(Nc2nc3ccc(F)cc3o2)N1` (stereo not shown) [Compound 69, 2-(4-(2-chloro-4-(6-methylpyridin-3-yl)phenyl)-2-((6-fluorobenzo[d]oxazol-2-yl)amino)-6-methyl-1,4-dihydropyrimidine-5-carboxamido)isonicotinic acid], the IC50 in data set [1] (setting [6]) turned out to be 0.34 µM; in data set [2] (setting [9]), 1.22 µM; in data set [2] (setting [7]), 1.22 µM. For the same compound, the “Perm. (1 × 10^−6 cm/sec)” value in data set [3] is reported as <1 1 × 10^−6 cm/sec. Moreover, the “Sol.” value in data set [4] is more than 90 µg/mL. In addition, the “Metab. Stabil. (m)” value in data set [5] was more than 30 m.

Turning to `CC1=C(C(=O)Nc2cc(C(=O)O)ccn2)C(c2ccc(-c3ccc(C(F)(F)F)nc3)cc2Cl)N=C(Nc2nc3ccc(F)cc3o2)N1` (stereo not shown) [Compound 70, 2-(4-(2-chloro-4-(6-(trifluoromethyl)pyridin-3-yl)phenyl)-2-((6-fluorobenzo[d]oxazol-2-yl)amino)-6-methyl-1,4-dihydropyrimidine-5-carboxamido)isonicotinic acid], the IC50 in data set [1] (setting [8]) was determined as 1.21 µM; in data set [1] (setting [6]), 1.21 µM; in data set [2] (setting [9]) it was 3.85 µM; in data set [2] (setting [7]) it was 3.85 µM. Moreover, the “Perm. (1 × 10^−6 cm/sec)” value in data set [3] is listed as <1 1 × 10^−6 cm/sec. The “Sol.” value in data set [4] came out at 28.6 µg/mL. Also, the “Metab. Stabil. (m)” value in data set [5] is more than 30 m.

As to `CC1=C(C(=O)Nc2cc(C(=O)O)ccn2)C(c2ccc(-c3cnc(C)nc3)cc2Cl)N=C(Nc2nc3ccc(F)cc3o2)N1` (stereo not shown) [Compound 71, 2-(4-(2-chloro-4-(2-methylpyrimidin-5-yl)phenyl)-2-((6-fluorobenzo[d]oxazol-2-yl)amino)-6-methyl-1,4-dihydropyrimidine-5-carboxamido)isonicotinic acid], the IC50 in data set [1] (setting [6]) worked out at 0.11 µM; in data set [2] (setting [9]), 0.69 µM; in data set [2] (setting [7]) it was 0.69 µM. For the same compound, the “Perm. (1 × 10^−6 cm/sec)” value in data set [3] is <1 1 × 10^−6 cm/sec. Besides, the “Sol.” value in data set [4] is more than 90 µg/mL. The “Metab. Stabil. (m)” value in data set [5] is recorded as more than 30 m.

As to `CC1=C(C(=O)Nc2cc(C(=O)O)ccn2)C(c2cc(C(=O)O)ccc2Cl)N=C(Nc2nc3ccc(F)cc3o2)N1` (stereo not shown) [Compound 73, 2-(4-(5-carboxy-2-chlorophenyl)-2-((6-fluorobenzo[d]oxazol-2-yl)amino)-6-methyl-1,4-dihydropyrimidine-5-carboxamido)isonicotinic acid], the IC50 in data set [1] (setting [8]) was found to be 1.72 µM; in data set [1] (setting [6]), 1.72 µM; in data set [2] (setting [9]), 12.2 µM; in data set [2] (setting [7]) it was 12.2 µM. Further, the “Perm. (1 × 10^−6 cm/sec)” value in data set [3] is given as 2.85 1 × 10^−6 cm/sec. Also, the “Sol.” value in data set [4] was more than 83 µg/mL. Also, the “Metab. Stabil. (m)” value in data set [5] is reported as more than 30 m.

Consider `CC1=C(C(=O)Nc2cc(C(=O)O)ccn2)C(c2ccc(-n3ccnc3)cc2Cl)N=C(Nc2nc3ccc(F)cc3o2)N1` (stereo not shown) [Compound 74, 2-(4-(2-chloro-4-(1H-imidazol-1-yl)phenyl)-2-((6-fluorobenzo[d]oxazol-2-yl)amino)-6-methyl-1,4-dihydropyrimidine-5-carboxaido)isonicotinic acid], for which the IC50 in data set [1] (setting [6]) worked out at 0.12 µM; in data set [2] (setting [7]), 0.97 µM. For the same compound, the “Perm. (1 × 10^−6 cm/sec)” value in data set [3] is on record as <1 1 × 10^−6 cm/sec. Besides, the “Sol.” value in data set [4] was more than 87 µg/mL. The “Metab. Stabil. (m)” value in data set [5] is more than 30 m.

With `CC1=C(C(=O)Nc2ccccn2)C(c2ccccc2Cl)N=C(Nc2nc3cccc(N)c3o2)N1` (stereo not shown) [Compound 81, 2-((7-aminobenzo[d]oxazol-2-yl)amino)-4-(2-chlorophenyl)-6-methyl-N-(pyridin-2-yl)-1,4-dihydropyrimidine-5-carboxamide], the values for the IC50 in data set [1] (setting [6]) and in data set [2] (setting [7]) were 3.43 µM and 19.3 µM, respectively. For the same compound, the “Perm. (1 × 10^−6 cm/sec)” value in data set [3] is reported as 271.13 1 × 10^−6 cm/sec. Further, the “Sol.” value in data set [4] was less than 1 µg/mL. Besides, the “Metab. Stabil. (m)” value in data set [5] was more than 30 m.
